Results as given in patent US20120238488A1, “COMPOUNDS AND METHODS FOR TREATING NEOPLASIA” (priority 2009, published 2012).
Read-outs that look alike come from different tables or passages of the source.

Experiments:
[1] = tested on: LOXIMVI (Melanoma); test: SRB assay, LOXIMVI; assay type: cell-based, human; details: 48 h; for CC50 / GI50: Homo sapiens, LOX IMVI; for CC50: read-out: LC50; for GI50 / TGI: LOXIMVI, SRB
Experimental: (§1) SRB assays were performed according to standard National Cancer Institute Guidelines. Briefly, human tumor cells from different cancer panels were seeded into 96 well plates in 100 μL (plating densities ranging from 5-40,000 cells/well depending on the doubling time of individual cell lines) in serum-containing media for twenty-four hours prior to the addition of the compounds to be assayed. After 24 hours, one plate of each cell line was fixed in situ with trichloroacetic acid (TCA). The fixed slides were used to determine the cell population for each cell line at the time of drug addition (Tz). Each compound to be tested was solubilized in DMSO and the desired concentration was then added to the medium and diluted serially 1:10 to provide a total of five or ten drug concentrations plus control (in a final volume of 200 μL). The starting dose before any dilution was 100 uM for all compounds.
(§2) Following drug addition, each culture was incubated for forty-eight hours. The assay was terminated with the addition of cold TCA. The supernatant was discarded, and the plates were washed with tap water and air dried. Sulforhodamine B (SRB) solution was then added to each well. After staining, the bound stain was solubilized and the absorbance was read on an automated plate reader at a wavelength of 515 nm.
(§3) Using the absorbance measurements [time zero, (Tz), control growth, (C), and test growth in the presence of drug at the ten concentration levels (Ti)], the percentage growth was calculated at each of the drug concentrations levels. Percentage growth inhibition was calculated as:
(§4) [(Ti−Tz)/(C−Tz)]×100 for concentrations for which Ti>/=Tz
(§5) [(Ti−Tz)/Tz]×100 for concentrations for which Ti<Tz.
(§6) Three dose response parameters were calculated for each experimental agent. Growth inhibition of 50% (GI50) was calculated from [(Ti−Tz)/(C−Tz)]×100=50, which was the drug concentration resulting in a 50% reduction in the net protein increase (as measured by SRB staining) in control cells during the drug. The drug concentration resulting in total growth inhibition (TGI) was calculated from Ti=Tz. The LC50 (concentration of drug resulting in a 50% reduction in the measured protein at the end of the drug treatment as compared to that at the beginning) indicating a net loss of cells following treatment was calculated from [(Ti−Tz)/Tz]×100=−50.
(§7) Values were calculated for each of these three parameters when the level of activity was reached; however, if the effect was not reached or was exceeded, the value for that parameter was expressed as greater or less than the maximum or minimum concentration tested.
(§8) Table 4 summarizes results characterizing the effects of compound Nos. 120, 12, 61, 1, and 56 on GI50, which measures the cell growth inhibitory power of the compound, TGI, which measures cytostatic effect (TGI) and LC50, which signifies cytotoxic effect. Each of these parameters in Table 4 was calculated in a sulforhodamine B (SRB) assay, which provides a colorimetric measure of a compound's anti-cancer activity. SRB assays were performed with compounds of the invention in 22 different cell lines (shaded in light gray in Table 4), which represent nine different tumor panels (lung, melanoma, ovary, prostate, CNS, breast, pancreas colon and renal). Ouabain and digoxin were used as controls. Paclitaxel was added as a non-Na^+K^+-ATPase inhibitor control.

[2] = tested on: SU8686 (Pancreas); test: SRB assay, SU8686; assay type: cell-based, human; details: for CC50 / GI50: Homo sapiens; for CC50: SU.86.86, 48 h, read-out: LC50; for GI50: SU.86.86; for GI50 / TGI: SU8686, SRB, 48 h
Experimental: as §1, §2, §3, §4, §5, §6, §7, §8

[3] = tested on: U251 (CNS); test: SRB assay, U251; assay type: cell-based, human; details: for CC50 / GI50: Homo sapiens; for CC50: read-out: LC50
Experimental: as §1, §2, §3, §4, §5, §6, §7, §8

[4] = tested on: IGROV1 (Ovary); test: SRB assay, IGROV1; assay type: cell-based, human; details: for CC50 / GI50: Homo sapiens; for CC50: IGROV-1, 48 h, read-out: LC50; for GI50: IGROV-1; for GI50 / TGI: IGROV1, SRB, 48 h
Experimental: as §1, §2, §3, §4, §5, §6, §7, §8

[5] = tested on: HCT15 (Colon); test: SRB assay, HCT15; assay type: cell-based, human; details: for TGI / GI50: HCT15, SRB, 48 h; for CC50 / GI50: Homo sapiens; for CC50: HCT-15, 48 h, read-out: LC50; for GI50: HCT-15
Experimental: as §1, §2, §3, §4, §5, §6, §7, §8

[6] = tested on: MCF7 (Breast); test: SRB assay, MCF7; assay type: cell-based, human; details: for CC50 / GI50: Homo sapiens; for CC50: MCF7, 48 h, read-out: LC50; for GI50 / TGI: MCF7, SRB, 48 h
Experimental: as §1, §2, §3, §4, §5, §6, §7, §8

[7] = tested on: H160 (Lung); test: SRB assay, H160; assay type: cell-based, human; details: 48 h; for TGI / GI50: H160, SRB; for CC50 / GI50: Homo sapiens; for CC50: read-out: LC50
Experimental: as §1, §2, §3, §4, §5, §6, §7, §8

[8] = tested on: A549 xenografts (lung carcinoma); test: A549 xenograft anti-tumor activity; assay type: in vivo, Nod/Scid mice; details: A549 xenografts, compound 56 20 mgk, paclitaxel 18 mgk
Experimental: All administrations were intraperitoneal.
At day 20 post inoculation (dpi), mean tumor volume was measured at 117.6 mm^3.
Compound 56 was administered intraperitoneallly using a [(QD×5;2) ×5] scheme. Paclitaxel, used as a positive control, was injected twice weekly for 5 cycles (Tuesday & Friday).

[9] = tested on: 22 different cell lines, nine tumor panels (lung, melanoma, ovary, prostate, CNS, breast, pancreas colon and renal); test: SRB assay, all tumor cell line panels (summary statements); assay type: cell-based, human; details: for GI50 action in all cell line panels tested (in words): SRB; for viability and/or cell proliferation of neoplastic cell lines: lung, breast, CNS, colon, prostate, ovary, pancreas, kidney and melanoma lines, including a multidrug resistant cell line
Experimental: as §1, §2, §3
Three dose response parameters were calculated for each experimental agent. […] The drug concentration resulting in total growth inhibition (TGI) was calculated from Ti=Tz. The LC50 (concentration of drug resulting in a 50% reduction in the measured protein at the end of the drug treatment as compared to that at the beginning) indicating a net loss of cells following treatment was calculated from [(Ti−Tz)/Tz]×100=−50.
Each of these parameters in Table 4 was calculated in a sulforhodamine B (SRB) assay, which provides a colorimetric measure of a compound's anti-cancer activity. SRB assays were performed with compounds of the invention in 22 different cell lines (shaded in light gray in Table 4), which represent nine different tumor panels (lung, melanoma, ovary, prostate, CNS, breast, pancreas colon and renal). […] Paclitaxel was added as a non-Na^+K^+-ATPase inhibitor control.

[10] = tested on: HCT116 colon cancer, PC3 and DU145 prostate cancer cell lines; test: MTT proliferation/viability assay; assay type: cell-based; details: 72 h, FIGS. 1A-1D, HCT116 only compound 120
Experimental: All assays were performed in triplicate.
The effect of the different compounds on the proliferation and viability of cancer cell lines was tested. Compound 120 was tested in one colon cancer cell line (HCT116), and compound Nos. 120, 12, 61, 1, and 56 were tested in two prostate cancer cell lines (PC3 and DU145). […] This colorimetric assay uses the reduction of MTT to formazan as a measure of metabolic activity. Untreated cells cultured in the presence of serum were used as a negative control.

[11] = U-251, U251, SRB, 48 h, read-out: GI50

SMILES	CC50 [1] [µM]	GI50 [1] [nM]	TGI [1] [µM]	CC50 [2] [µM]	CC50 ([3]; U-251, 48 h) [µM]	CC50 [4] [µM]	GI50 [4] [nM]	TGI [4] [µM]	TGI [5] [µM]	CC50 [5] [µM]	GI50 [5] [nM]	CC50 [6] [µM]	GI50 [6] [nM]	TGI [6] [µM]	TGI [7] [µM]	CC50 [7] [µM]	GI50 [7] [nM]	GI50 action in all cell line panels tested (in words) [9]	viability and/or cell proliferation of neoplastic cell lines [9]	inhibition of cell proliferation and viability (MTT) [10]	further results
CC(=O)O[C@H]1C(=O)[C@@]2(C)[C@H]([C@H](OC(=O)c3ccccc3)[C@]3(O)C[C@H](OC(=O)[C@H](O)[C@@H](NC(=O)c4ccccc4)c4ccccc4)C(C)=C1C3(C)C)[C@]1(OC(C)=O)CO[C@@H]1C[C@@H]2O [Paclitaxel, reference compound]	5.18	< 1	0.288	16.5	6.73	10.6	1	3.305	0.852	12.3	53	> 10	< 100	>10	3.7685	> 10	< 100				GI50 [2]: 8 nM; TGI [2]: 7.927 µM; GI50 [3, 11]: < 1 nM; TGI ([3]; U251, SRB, 48 h): 1.745 µM; DT/DC ([8]; day 24, intraperitoneal): −46,68%; post mortem analysis on excised tumors: tumor growth inhibition [8]: statistical significant tumor growth inhibition
C[C@]12CCC(=NOCCN)C=C1CCC1C2CC[C@]2(C)C(=O)CCC12 (stereo partly drawn) [Compound 12, (10R,13S)-3-(2-aminoethoxyimino)-10,13-dimethyl-2,3,7,8,9,10,11,12,13,14,15,16-dodecahydro-1H-cyclopenta[a]phenanthren-17(6H)-one]	≥ 117	660	24.06		8.61	68.4	5370	12.38	6.70	9.61	3790	9.47	3790	6.63	5.86	8.73	2990	mostly single-digit micromolar GI50 action	reduced the viability and/or cell proliferation	strong inhibition of cell proliferation and viability	GI50 [3, 11]: 3090 nM; TGI ([3]; U251, SRB, 48 h): 5.85 µM
C[C@H]1O[C@@H](O[C@H]2[C@@H](O)C[C@H](O[C@H]3[C@@H](O)C[C@H](O[C@H]4CC[C@@]5(C)[C@H](CC[C@@H]6[C@@H]5C[C@@H](O)[C@]5(C)[C@@H](C7=CC(=O)OC7)CC[C@]65O)C4)O[C@@H]3C)O[C@@H]2C)C[C@H](O)[C@@H]1O [Digoxin, reference compound]	> 100	80	>100	0.63	0.61	> 100	40	0.35	0.06	0.16	30	0.4	< 80	0.1	<0.08	0.3	< 80				GI50 [2]: 30 nM; TGI [2]: 0.09 µM; TGI [3]: 0.10 µM; GI50 ([3]; U-251, 48 h): 20 nM
C[C@]12CCC(=NOC3CCNC3)C=C1CCC1C2CC[C@]2(C)C(=O)CCC12 (stereo partly drawn) [Compound 61, (10R,13S)-10,13-dimethyl-3-(pyrrolidin-3-yloxyimino)-2,3,7,8,9,10,11,12,13,14,15,16-dodecahydro-1H-cyclopenta[a]phenanthren-17(6H)-one]																		nanomolar GI50 action	reduced the viability and/or cell proliferation	strong inhibition of cell proliferation and viability	
C[C@]12CCC(=NOCCN)CC1CCC1C2CC[C@]2(C)C(=O)CCC12 (stereo partly drawn) [Compound 1, (10S,13S)-3-(2-aminoethoxyimino)-10,13-dimethyltetradecahydro-1H-cyclopenta[a]phenanthren-17(2H)-one]																		nanomolar GI50 action	reduced the viability and/or cell proliferation	strong inhibition of cell proliferation and viability	
